Test results taken from patent US20260347364A1, “PYRAZOLO[4,3-F]QUINAZOLINE DERIVATIVES AS MODULATORS OF G12D MUTANT KRAS USEFUL FOR THE TREATMENT OF CANCER” (JAZZ PHARMACEUTICALS IRELAND LTD., priority 2023, published 2026).

What was measured:
[1] = target: T1, KRAS G12D (Homo sapiens, UniProt P01116, G12D); assay: HTRF nucleotide exchange assay, KRAS G12D; type: biochemical; details: class symbols; for IC50: HTRF nucleotide exchange assay (NEA)
T1 construct: aa1-188 KRAS WT, HRAS WT, NRAS WT, or KRAS containing the G12D

[2] = target: T2, KRAS WT (Homo sapiens, UniProt P01116); assay: HTRF nucleotide exchange assay, KRAS WT; type: biochemical; details: class symbols; for IC50: HTRF nucleotide exchange assay (NEA)
T2 construct: aa1-188 KRAS WT

Row | IC50 [1] | KRAS^WT NEA [2] | IC50 [2] | KRAS^G12D NEA [1] | SMILES
1 | ≤ 10 nM | – | ≤ 10 nM | – | CCc1c(F)ccc2cc(O)cc(-c3cc4nc(OC[C@@]56CCCN5C[C@H](F)C6)nc(N5CCCC5CO)c4c4cn(C)nc34)c12 (stereo partly drawn) [Example 183, 5-ethyl-6-fluoro-4-[9-[2-(hydroxymethyl)pyrrolidin-1-yl]-2-methyl-7-[[(2R,8S)-2-fluoro-1,2,3,5,6,7-hexahydropyrrolizin-8-yl]methoxy]pyrazolo[4,3-f]quinazolin-4-yl]naphthalen-2-ol]
2 | ≤ 10 nM | – | 10 to 100 nM | – | CCc1c(F)ccc2cc(O)cc(-c3cc4nc(OC[C@@]56CCCN5C[C@H](F)C6)nc(N5CCCn6nc(C)cc6C5)c4c4cn(C)nc34)c12 [Example 72]
3 | ≤ 10 nM | – | ≤ 10 nM | – | C#Cc1c(F)ccc2cc(O)cc(-c3c(F)c4nc(OC[C@@]56CCCN5C[C@H](F)C6)nc(N5CCCn6nc(C(=O)N(C)C)cc6C5)c4c4cn(C)nc34)c12 [Example 93, 5-[4-(8-ethynyl-7-fluoro-3-hydroxy-1-naphthyl)-5-fluoro-2-methyl-7-[[(2R,8S)-2-fluoro-1,2,3,5,6,7-hexahydropyrrolizin-8-yl]methoxy]pyrazolo[4,3-f]quinazolin-9-yl]-N,N-dimethyl-4,6,7,8-tetrahydropyrazolo[1,5-a][1,4]diazepine-2-carboxamide]
4 | – | D (<49% inhibition at 10 μM) | – | D (<49% inhibition at 10 μM) | Cn1cc2c(n1)c(-c1ncc(F)c3sc(N)c(C#N)c13)cc1nc(OC[C@@]34CCCN3C[C@H](F)C4)nc(N3CCOCC(C)(O)C3)c12 (stereo partly drawn) [Example 107, 2-amino-7-fluoro-4-[7-[[(2R,8S)-2-fluoro-1,2,3,5,6,7-hexahydropyrrolizin-8-yl]methoxy]-9-(6-hydroxy-6-methyl-1,4-oxazepan-4-yl)-2-methyl-pyrazolo[4,3-f]quinazolin-4-yl]thieno[3,2-c]pyridine-3-carbonitrile]
5 | ≤ 10 nM | – | ≤ 10 nM | – | CCc1c(F)ccc2cc(O)cc(-c3c(F)c4nc(OCC5(CN6CCCCC6)CC5)nc(N5CCOCC(C)(O)C5)c4c4cn(C)nc34)c12 (centres unmarked) [Example 172, 4-[4-(8-ethyl-7-fluoro-3-hydroxy-1-naphthyl)-5-fluoro-2-methyl-7-[[1-(1-piperidylmethyl)cyclopropyl]methoxy]pyrazolo[4,3-f]quinazolin-9-yl]-6-methyl-1,4-oxazepan-6-ol]
6 | ≤ 10 nM | – | ≤ 10 nM | – | CCc1c(F)ccc2cc(O)cc(-c3c(F)c4nc(OCC5(CN6CCC7(CCOCC7)C6)CC5)nc(N5CCOCC(C)(O)C5)c4c4cn(C)nc34)c12 (centres unmarked) [Example 228, 4-[4-(8-ethyl-7-fluoro-3-hydroxy-1-naphthyl)-5-fluoro-2-methyl-7-[[1-(8-oxa-2-azaspiro[4.5]decan-2-ylmethyl)cyclopropyl]methoxy]pyrazolo[4,3-f]quinazolin-9-yl]-6-methyl-1,4-oxazepan-6-ol]
7 | 100 to 10000 nM | – | 100 to 10000 nM | – | CCc1c(F)ccc2cc(O)cc(-c3cc4nc(OCC56CCCN5CCC6)nc(N5CCCC(C)(O)CC5)c4c4cn(C)nc34)c12 (centres unmarked) [Example 27, 1-[4-(8-ethyl-7-fluoro-3-hydroxy-1-naphthyl)-7-(1,2,3,5,6,7-hexahydropyrrolizin-8-ylmethoxy)-2-methyl-pyrazolo[4,3-f]quinazolin-9-yl]-4-methyl-azepan-4-ol]
8 | ≤ 10 nM | – | ≤ 10 nM | – | CCc1c(F)ccc2cc(O)cc(-c3c(C)c4nc(OC[C@@]56CCCN5C[C@H](F)C6)nc(N5CCCn6nc(COC)cc6C5)c4c4cn(C)nc34)c12 [Example 243]
9 | ≤ 10 nM | – | ≤ 10 nM | – | CCc1c(F)ccc2cc(O)cc(-c3c(F)c4nc(OCC5(CN6CCC(F)(F)CC6)CC5)nc(N5CCOCC(C)(O)C5)c4c4cn(C)nc34)c12 (centres unmarked) [Example 229, 4-[7-[[1-[(4,4-difluoro-1-piperidyl)methyl]cyclopropyl]methoxy]-4-(8-ethyl-7-fluoro-3-hydroxy-1-naphthyl)-5-fluoro-2-methyl-pyrazolo[4,3-f]quinazolin-9-yl]-6-methyl-1,4-oxazepan-6-ol]
10 | 10 to 100 nM | – | 100 to 10000 nM | – | CCc1c(F)ccc2cc(O)cc(-c3c(C)c4nc(OCC5(CF)COC5)nc(N5CCCn6nc(C(=O)N(C)C)cc6C5)c4c4cn(C)nc34)c12 [Example 215]
11 | 100 to 10000 nM | – | 100 to 10000 nM | – | CCc1c(F)ccc2cc(O)cc(-c3cc4nc(OCC5CCCCN5C)nc(N5CCCOCC5)c4c4cn(C)nc34)c12 (centres unmarked) [Example 19, 5-ethyl-6-fluoro-4-[2-methyl-7-[(1-methyl-2-piperidyl)methoxy]-(1,4-oxazepan-4-yl)pyrazolo[4,3-f]quinazolin-4-yl]naphthalen-2-ol]

Second part, the compound before the results:

Row | SMILES | IC50 [1] | KRAS^WT NEA [2] | IC50 [2] | KRAS^G12D NEA [1]
12 | CCc1c(F)ccc2cc(O)cc(-c3cc4nc(OC[C@@]56CCCN5C[C@H](F)C6)nc(N5CC(C(C)(C)O)C5)c4c4cn(C)nc34)c12 [Example 128, 5-ethyl-6-fluoro-4-[9-[3-(1-hydroxy-1-methyl-ethyl)azetidin-1-yl]-2-methyl-7-[[(2R,8S)-2-fluoro-1,2,3,5,6,7-hexahydropyrrolizin-8-yl]methoxy]pyrazolo[4,3-f]quinazolin-4-yl]naphthalen-2-ol] | 100 to 10000 nM | D (<49% inhibition at 10 μM) | – | –
13 | CCc1c(F)ccc2cc(O)cc(-c3c(F)c4nc(OCC5(CN6CC[C@@H](F)C6)CC5)nc(N5CCOCC(C)(O)C5)c4c4cn(C)nc34)c12 (stereo partly drawn) [Example 193, 4-[4-(8-ethyl-7-fluoro-3-hydroxy-1-naphthyl)-5-fluoro-2-methyl-7-[[1-[[(3R)-3-fluoropyrrolidin-1-yl]methyl]cyclopropyl]methoxy]pyrazolo[4,3-f]quinazolin-9-yl]-6-methyl-1,4-oxazepan-6-ol] | ≤ 10 nM | – | ≤ 10 nM | –
14 | Cn1cc2c(n1)c(-c1cc(O)cc3c1C(=O)CCC3)cc1nc(OC[C@@]34CCCN3C[C@H](F)C4)nc(N3CCCOCC3)c12 [Example 58, 6-hydroxy-8-[2-methyl-9-(1,4-oxazepan-4-yl)-7-[[(2R,8S)-2-fluoro-1,2,3,5,6,7-hexahydropyrrolizin-8-yl]methoxy]pyrazolo[4,3-f]quinazolin-4-yl]tetralin-1-one] | – | D (<49% inhibition at 10 μM) | – | D (<49% inhibition at 10 μM)
15 | CCc1c(F)ccc2cc(O)cc(-c3c(F)c4nc(OC[C@@]56CCCN5C[C@H](F)C6)nc(N5CC6CCC(C5)N6)c4c4cn(C)nc34)c12 [Example 99, 4-[9-(3,8-diazabicyclo[3.2.1]octan-3-yl)-5-fluoro-2-methyl-7-[[(2R,8S)-2-fluoro-1,2,3,5,6,7-hexahydropyrrolizin-8-yl]methoxy]pyrazolo[4,3-f]quinazolin-4-yl]-5-ethyl-6-fluoro-naphthalen-2-ol] | ≤ 10 nM | – | ≤ 10 nM | –
16 | CCc1c(F)ccc2cc(O)cc(-c3c(F)c4nc(OCC5(CN6CCCC6)CC5)nc(N5CCC[C@@](C)(O)C5)c4c4cn(C)nc34)c12 [Example 202, (3R)-1-[4-(8-ethyl-7-fluoro-3-hydroxy-1-naphthyl)-5-fluoro-2-methyl-7-[[1-(pyrrolidin-1-ylmethyl)cyclopropyl]methoxy]pyrazolo[4,3-f]quinazolin-9-yl]-3-methyl-piperidin-3-ol] | ≤ 10 nM | – | ≤ 10 nM | –
17 | CCc1c(F)ccc2cc(O)cc(-c3c(F)c4nc(OCC5(CN6CCC(F)(F)C6)CC5)nc(N5CCOCC(C)(O)C5)c4c4cn(C)nc34)c12 (centres unmarked) [Example 189, 4-[7-[[1-[(3,3-difluoropyrrolidin-1-yl)methyl]cyclopropyl]methoxy]-4-(8-ethyl-7-fluoro-3-hydroxy-1-naphthyl)-5-fluoro-2-methyl-pyrazolo[4,3-f]quinazolin-9-yl]-6-methyl-1,4-oxazepan-6-ol] | 10 to 100 nM | – | 10 to 100 nM | –
18 | CCc1c(F)ccc2cc(O)cc(-c3cc4nc(OC[C@@]56CCCN5C[C@H](F)C6)nc(N5CCCOCC5)c4c4cn(C5CC5)nc34)c12 [Example 44, 4-[2-cyclopropyl-9-(1,4-oxazepan-4-yl)-7-[[(2R,8S)-2-fluoro-1,2,3,5,6,7-hexahydropyrrolizin-8-yl]methoxy]pyrazolo[4,3-f]quinazolin-4-yl]-5-ethyl-6-fluoro-naphthalen-2-ol] | 10 to 100 nM | – | 10 to 100 nM | –
19 | CCc1c(F)ccc2cc(O)cc(-c3cc4nc(OCC56CCCN5CCC6)nc(N5CCCOCC5)c4c4cn(C)nc34)c12 [Example 6, 5-ethyl-6-fluoro-4-[7-(1,2,3,5,6,7-hexahydropyrrolizin-8-ylmethoxy)-2-methyl-9-(1,4-oxazepan-4-yl)pyrazolo[4,3-f]quinazolin-4-yl]naphthalen-2-ol] | ≤ 10 nM | – | ≤ 10 nM | –
20 | CCc1c(F)ccc2cc(O)cc(-c3c(C)c4nc(OC[C@]5(C)CCCN5C)nc(N5CCOCC(C)(O)C5)c4c4cn(C)nc34)c12 (stereo partly drawn) [Example 148, 4-[4-(8-ethyl-7-fluoro-3-hydroxy-1-naphthyl)-2,5-dimethyl-7-[[(2S)-1,2-dimethylpyrrolidin-2-yl]methoxy]pyrazolo[4,3-f]quinazolin-9-yl]-6-methyl-1,4-oxazepan-6-ol] | ≤ 10 nM | – | ≤ 10 nM | –
21 | CCc1c(F)ccc2cc(O)cc(-c3cc4nc(OC[C@@]56CCCN5C[C@H](F)C6)nc(N5CCCn6nc(CN(C)C)cc6C5)c4c4cn(C)nc34)c12 [Example 102, 4-[9-[2-[(dimethylamino)methyl]-4,6,7,8-tetrahydropyrazolo[1,5-a][1,4]diazepin-5-yl]-2-methyl-7-[[(2R,8S)-2-fluoro-1,2,3,5,6,7-hexahydropyrrolizin-8-yl]methoxy]pyrazolo[4,3-f]quinazolin-4-yl]-5-ethyl-6-fluoro-naphthalen-2-ol] | ≤ 10 nM | – | 10 to 100 nM | –
22 | Cn1ncc2c3c(N4CCCOCC4)nc(OC[C@@]45CCCN4C[C@H](F)C5)nc3cc(-c3cc(O)cc4ccccc34)c21 [Example 48, 4-[3-methyl-9-(1,4-oxazepan-4-yl)-7-[[(2R,8S)-2-fluoro-1,2,3,5,6,7-hexahydropyrrolizin-8-yl]methoxy]pyrazolo[4,3-f]quinazolin-4-yl]naphthalen-2-ol] | – | D (<49% inhibition at 10 μM) | – | D (<49% inhibition at 10 μM)
